The record followed here is patent publication US20180252712A1, “RECEPTOR FOR NOROVIRUS AND USES THEREOF” (priority 2017, published 2018).

One data set relates to MNoV^CW3. The data set can be described thus: CRISPR screen in BV2-Cas9 cells, sgRNA enrichment after MNoV^CW3 infection. The data set is classed as cell-based, murine norovirus. As to conditions: for log2 fold enrichment after MNV infection relative to mock infected cells, CW3 MOI 0.05: MNoV^CW3, MOI 0.05, ten days post-infection; for log2 fold enrichment after MNV infection relative to mock infected cells, CW3 MOI 5: MNoV^CW3, MOI 5, ten days post-infection. The procedure: (§1) BV2 cells were transduced with pXPR_101 (Addgene plasmid 52962) and selected with blasticidin for eleven days. Cas9 activity was assessed by transducing parental BV2 or BV2-Cas9 cells with pXPR_011 (Addgene plasmid 59702), expresses eGFP and a sgRNA targeting eGFP at an MOI<1 [1]. Cells were transduced for 2 days and subsequently, selected for five days with puromycin and the frequency of eGFP expression was assessed by flow cytometry. The mouse ASIAGO sgRNA CRISPR library contains six independent genome wide pools which each pool containing a unique sgRNA targeting each of 20,077 mouse genes. Four ASIAGO pools were independently used to generate the BV2 library (Doench et al submitted). Each ASIAGO pool was delivered by lentiviral transduction of 5×10^7 BV2 cells at an MOI ˜0.2. This equates to 1×10^7 transduced cells, which is sufficient for the integration of each sgRNA 500 independent times. Two days post transduction, puromycin was added to the media and transduced cells were selected for five days. For each experimental condition, 1×10^7 BV2-Cas9 cells containing sgRNAs were seeded in a T175 tissue culture flask. Cells were infected with either MNoV^CW3 or MNoV^CR6 at MOls of 0.05 and 5. Mock infected cells were harvested 48 hrs after seeding and served as a reference for sgRNA enrichment analysis. Ten days post-infection genomic DNA was isolated from surviving cells using a Qiamp DNA mini kit according to manufacturer instructions (Qiagen).
(§2) Illumina sequencing and STARS analysis was performed as described previously (Doench et al, in press). Briefly, genomic DNA was aliquoted into multiple wells of a 96-well plate with up to 10 μg of DNA in 50 μl total volume. A PCR mastermix consisting of ExTaq DNA polymerase (Clontech), ExTaq buffer, dNTP, P5 stagger primer, and water was generated. 40 μl of PCR master mix, and 10 μl of a barcoded primer was added to each well containing 50 μl of DNA. Samples were PCR amplified as follows: 95° C. for 1 min., followed by 28 cycles of 94° C. for 30 sec., 52.5° C. for 30 sec., 72° C. for 30 sec. with a final 10 min. at 72° C. PCR product was purified with Agencourt AMPure XP SPRI beads according to the manufacture's protocol (Beckman Coluter). Samples were sequenced on an Illumina HiSeq 2000. Barcodes in the P7 primer were deconvuluted and the sgRNA sequence was mapped to a reference file of sgRNAs in the ASIAGO library. To normalize for different numbers of reads per condition, read counts per sgRNA were normalized to 10^7 total reads per sample. This normalized value was then log-2 transformed. sgRNAs that were not sequenced were arbitrarily assigned a read count of 1. sgRNA frequencies were then analyzed using STARS software, which is available at broadinstitute.org/rnai/public/software/index (Doench et al, in press). STARS computes a score for each gene of rank-ordered sgRNA hits that was above […] of total sequenced sgRNAs. A STAR score was only assigned to genes that scored above this threshold in at least two of four independent genome wide pools.

A further data set concerns MNoV^CR6. The experiment in a line: CRISPR screen in BV2-Cas9 cells, sgRNA enrichment after MNoV^CR6 infection. The data set is classed as cell-based, murine norovirus. As to conditions: for log2 fold enrichment after MNV infection relative to mock infected cells, CR6 MOI 0.05: MNoV^CR6, MOI 0.05, ten days post-infection; for log2 fold enrichment after MNV infection relative to mock infected cells, CR6 MOI 5: MNoV^CR6, MOI 5, ten days post-infection. How it is done: as §1, §2

Take “ACAGGTCCAGAGGAGGTGAG: sgRNA used in screen, matches CD300ld, CD300lf, CD300lh (listed as DNA, chemistry not given here)”: in the data set with MNoV^CW3, the “log2 fold enrichment after MNV infection relative to mock infected cells, CW3 MOI 0.05” value is given as 0.0 log2 fold enrichment and the “log2 fold enrichment after MNV infection relative to mock infected cells, CW3 MOI 5” value was 13.0 log2 fold enrichment. In addition, in the data set on MNoV^CR6, the “log2 fold enrichment after MNV infection relative to mock infected cells, CR6 MOI 0.05” value worked out at 0.0 log2 fold enrichment and the “log2 fold enrichment after MNV infection relative to mock infected cells, CR6 MOI 5” value stood at 13.1 log2 fold enrichment.
Take “GTTACTGTGAACATTGGCCC: sgRNA used in screen, matches CD300lf (listed as DNA, chemistry not given here)”: in the data set on MNoV^CW3, the “log2 fold enrichment after MNV infection relative to mock infected cells, CW3 MOI 0.05” value turned out to be 0.0 log2 fold enrichment and the “log2 fold enrichment after MNV infection relative to mock infected cells, CW3 MOI 5” value amounted to 12.1 log2 fold enrichment. Further, in the data set with MNoV^CR6, the “log2 fold enrichment after MNV infection relative to mock infected cells, CR6 MOI 0.05” value was 0.0 log2 fold enrichment and the “log2 fold enrichment after MNV infection relative to mock infected cells, CR6 MOI 5” value stood at 12.0 log2 fold enrichment.
For the substance “GCCCTTGCTACTTACCTGGG: sgRNA used in screen, matches CD300ld (listed as DNA, chemistry not given here)”, in the data set with MNoV^CW3, the “log2 fold enrichment after MNV infection relative to mock infected cells, CW3 MOI 0.05” value was determined as 0.0 log2 fold enrichment and the “log2 fold enrichment after MNV infection relative to mock infected cells, CW3 MOI 5” value is on record as −5.5 log2 fold enrichment. In addition, in the data set on MNoV^CR6, the “log2 fold enrichment after MNV infection relative to mock infected cells, CR6 MOI 0.05” value is listed as 0.0 log2 fold enrichment and the “log2 fold enrichment after MNV infection relative to mock infected cells, CR6 MOI 5” value was −5.5 log2 fold enrichment.
As for “TAGAGCAGAGAACTGCCACA: sgRNA used in screen, matches CD300ld (listed as DNA, chemistry not given here)”, in the data set with MNoV^CW3, the “log2 fold enrichment after MNV infection relative to mock infected cells, CW3 MOI 0.05” value is recorded as −6.7 log2 fold enrichment and the “log2 fold enrichment after MNV infection relative to mock infected cells, CW3 MOI 5” value is reported as −6.7 log2 fold enrichment. For the same substance, in the data set on MNoV^CR6, the “log2 fold enrichment after MNV infection relative to mock infected cells, CR6 MOI 0.05” value is given as −6.7 log2 fold enrichment and the “log2 fold enrichment after MNV infection relative to mock infected cells, CR6 MOI 5” value is on record as −6.7 log2 fold enrichment.
On to “CTAGCTACTACTCTGATAAC: sgRNA used in screen, matches CD300lf (listed as DNA, chemistry not given here)”, for which, in the data set with MNoV^CW3, the “log2 fold enrichment after MNV infection relative to mock infected cells, CW3 MOI 0.05” value amounted to 0.0 log2 fold enrichment and the “log2 fold enrichment after MNV infection relative to mock infected cells, CW3 MOI 5” value came to 11.0 log2 fold enrichment. Further, in the data set with MNoV^CR6, the “log2 fold enrichment after MNV infection relative to mock infected cells, CR6 MOI 0.05” value amounted to 0.0 log2 fold enrichment and the “log2 fold enrichment after MNV infection relative to mock infected cells, CR6 MOI 5” value is listed as 9.8 log2 fold enrichment.
